From patent US20050002947A1, “In vitro bioassay employing laboratory-cultured larvae of strongyloides stercoralis” (University of the West Indies, priority 2003, published 2005) come the findings set out here.

Data set [1] deals with S. stercoralis larvae. Nature of the data set: Dye exclusion test using eosin to tell live from killed larvae. It counts as cell-based. Conditions: for Percentage of S. stercoralis larvae stained using eosin in vitro: n~100. The procedure: Dye exclusion tests have been used successfully to indicate viability in parasitic platyhelminths, and similar testing can be applied to S. stercoralis larvae. Use of 0.01% v/v eosin in LNS (ELNS) in a dye exclusion test indicated death of larvae in less than 10 minutes, and 0.01-0.03% ELNS had no effect on healthy individuals. The larvae typically survive for more than 100 hours in ELNS. Accordingly, LNS is a preferred medium in which to maintain larvae harvested from multiplication in coproculture and ELNS is a preferred medium for evaluating the effects of physiologically active materials, such as candidate anthelmintic materials, on the larvae. However, the skilled practitioner will recognize that any medium in which the larvae can be maintained for a convenient period of time, and any appropriate vital staining dye, can be used in the method of the invention.
The results of a comparative test to establish the ability of a dye exclusion procedure using eosin to discriminate between live and killed larvae are presented in Table 1 below. FIG. 1 is a photomicrograph of a microscopic inspection field showing a number of larvae of S. stercoralis after exposure to an anthelmintic agent.

In data set [2] the test system is S. stercoralis larvae. Nature of the data set: Larval tolerance to methanol (solvent). It is filed as cell-based, Strongyloides stercoralis. Conditions: aqueous solutions containing methanol; cumulative percentage mortality. The procedure:
Active constituents of plants are typically extracted in organic solvents such as methanol. […] Studies of methanol toxicity for S. stercoralis indicate that a methanol concentration exceeding 5 μg/100 mL LNS (>50 times that detected in plant extracts using NMR analyses) is required to exert any significant effect on larval mortality.

In data set [3] the test system is S. stercoralis larvae. The data set is described as follows: Larval tolerance to emulsifiers. It counts as cell-based. From the text:
Triton® X-100 (octylphenoxy polyethoxyethanol) is recommended for use as an emulsifier, where necessary. A concentration of 1-4% in 0.01% ELNS had no effect on larval mobility or mortality.
Other suitable surfactants for dispersing plant extracts can be developed by routine testing according to the described procedures.

As for `O=C1OC2(c3ccccc31)c1cc(Br)c(O)c(Br)c1Oc1c2cc(Br)c(O)c1Br` [eosin], in the data set with S. stercoralis larvae [1] (0.01% v/v eosin in LNS), the “Time in which the dye exclusion test indicated death of larvae” value is listed as “less than 10 minutes”. The “Percentage of S. stercoralis larvae stained using eosin in vitro” value (“Percentage” for short) in the data set on S. stercoralis larvae [1] (heat killed larvae (60° C./30 min), eosin 0.01% (w/v), 0 min) is listed as 0%; in the data set on S. stercoralis larvae [1] (heat killed larvae (60° C./30 min), eosin 0.01% (w/v), 10 min), 100%; in the data set with S. stercoralis larvae [1] (heat killed larvae (60° C./30 min), eosin 0.03% (w/v), 0 min), 0%; in the data set on S. stercoralis larvae [1] (heat killed larvae (60° C./30 min), eosin 0.03% (w/v), 10 min), 100%; in the data set on S. stercoralis larvae [1] (living larvae, eosin 0.01% (w/v), 0 min), 0%; with S. stercoralis larvae [1] (living larvae, eosin 0.01% (w/v), 10 min), 1%. The “Percentage” value is recorded as 1% with S. stercoralis larvae [1] (living larvae, eosin 0.01% (w/v), 20 min); 2% with S. stercoralis larvae [1] (living larvae, eosin 0.01% (w/v), 30 min); 2% in the data set with S. stercoralis larvae [1] (living larvae, eosin 0.01% (w/v), 40 min); 2% in the data set with S. stercoralis larvae [1] (living larvae, eosin 0.01% (w/v), 50 min); 2% in the data set on S. stercoralis larvae [1] (living larvae, eosin 0.01% (w/v), 60 min); 2% with S. stercoralis larvae [1] (living larvae, eosin 0.01% (w/v), column headed only "(min)", after 60). The “Percentage” value with S. stercoralis larvae [1] (living larvae, eosin 0.03% (w/v), 0 min) is on record as 0%; in the data set with S. stercoralis larvae [1] (living larvae, eosin 0.03% (w/v), 10 min), 1%; in the data set with S. stercoralis larvae [1] (living larvae, eosin 0.03% (w/v), 20 min), 1%; in the data set on S. stercoralis larvae [1] (living larvae, eosin 0.03% (w/v), 30 min) it was 2%; in the data set with S. stercoralis larvae [1] (living larvae, eosin 0.03% (w/v), 40 min) it was 2%; with S. stercoralis larvae [1] (living larvae, eosin 0.03% (w/v), 50 min) it was 2%. Further, the “Percentage” value in the data set with S. stercoralis larvae [1] (living larvae, eosin 0.03% (w/v), 60 min) is on record as 2%; in the data set with S. stercoralis larvae [1] (living larvae, eosin 0.03% (w/v), column headed only "(min)", after 60), 3%.
With `CO` [methanol], the “Methanol concentration required to exert any significant effect on larval mortality” value with S. stercoralis larvae [2] was “exceeding 5 μg/100 mL LNS”.
Take Tween® 20: in the data set with S. stercoralis larvae [3] (0.1-0.4% in 0.1% ELNS), the “Toxicity to S. stercoralis larvae” value is given as “toxic”.
In the case of “octylphenoxy polyethoxyethanol [Triton® X-100]”, in the data set on S. stercoralis larvae [3] (1-4% in 0.01% ELNS), the “Effect on larval mobility” value is listed as “no effect” and the “Effect on larval mortality” value is listed as “no effect”.
